This is an account of results in patent EP0790989B1, “CERTAIN SUBSTITUTED BENZYLAMINE DERIVATIVES; A NEW CLASS OF NEUROPEPTIDE Y1 SPECIFIC LIGANDS” (PFIZER INC., priority 1994, dated 1996).

Each structure is given as a SMILES string. Counter-ions that a name gives are not always drawn.

By IC50 is commonly meant the concentration that gives 50% inhibition.

For this experiment, the target named is T1, human NPY1 receptors (Homo sapiens, UniProt P25929).
T1 construct: SK-N-MC cells were purchased from ATCC (Rockville, MD); host or cells: SK-N-MC cells (human neuroepithelioma line), intact confluent monolayers
T1 sequence (P25929 1-384): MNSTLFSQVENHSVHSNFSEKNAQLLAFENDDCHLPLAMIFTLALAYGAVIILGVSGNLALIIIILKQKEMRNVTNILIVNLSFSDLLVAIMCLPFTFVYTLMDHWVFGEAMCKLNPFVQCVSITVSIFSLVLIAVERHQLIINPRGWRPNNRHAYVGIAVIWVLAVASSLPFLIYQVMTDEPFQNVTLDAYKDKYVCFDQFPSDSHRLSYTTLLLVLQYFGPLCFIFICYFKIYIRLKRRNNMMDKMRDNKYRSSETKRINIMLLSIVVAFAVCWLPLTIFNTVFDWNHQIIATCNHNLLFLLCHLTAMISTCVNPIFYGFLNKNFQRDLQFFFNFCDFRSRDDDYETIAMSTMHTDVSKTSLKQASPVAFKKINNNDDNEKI
In words: Assay for Human NPY1 receptor binding activity ([125I]PYY binding to SK-N-MC cells). The conditions noted are these: IC50, [125I]PYY (~50 pM) binding to confluent SK-N-MC cells, 3 hour incubation at room temperature. As for the experimental part: The procedure used is similar to that described by Gordon et al. (J. Neurochem. 55:506-513, 1990). SK-N-MC cells were purchased from ATCC (Rockville, MD). Cells were maintained at 37°C and 5% CO2 in Dulbecco's modified essential media (DMEM) with L-glutamine and 110 mg/L sodium pyruvate, which was supplemented with 10% fetal bovine serum and 25 mM HEPES (pH 7.3). The binding assay was performed in 24-well plates (Falcon) when the cells were confluent. Taking care to not disturb the cells on the bottom of the wells, the media was aspirated, and 0.5 ml of Dulbecco's phosphate buffered saline (DPBS) with calcium and magnesium were added to each well. The DPBS was aspirated and an additional aliquot of DPBS was added and aspirated. To begin the assay, binding buffer consisting of serum-free DMEM containing 0.5% bovine serum albumin, 0.1% bacitracin and 0.1 mM phenylmethylsulfonylfluoride was added to each well. The cells and the binding buffer preincubated for 30 minutes at room temperature, at which point the drug dilution and [^125I]PYY (NEN-DuPont: 50000 -75000 cpm ∼ 50 pM) were added to yield a final volume of 250 ul. Nonspecific binding was defined with […] NPY (porcine or human, Bachem California). After a 3 hour incubation at room temperature, the plates were then put on ice and the wells were aspirated. The cells were washed 4-6 times with 0.5 ml of ice-cold DPBS. A dilute solution of Triton X-100 (1%) was then added to each well. After approximately 1 hour at room temperature, an aliquot from each well was transferred to a 12x75 mm testtube, and the amount of [^125I] was quantitated on a gamma counter with an efficiency of 80-85% (Genesys 5000, Laboratory Technologies). IC50 values were calculated with the non-linear curve fitting program RS/1 (BBN Software Products Corp., Cambridge, MA).
On to `CCOc1cccc(C2(N3CCN(c4ccccc4)CC3)CCCCC2)c1` [Compound 9, 1-(3-Ethoxyphenyl)-1-(4-phenylpiperazin-1-yl)-cyclohexane dihydrochloride], for which the IC50 came out at 137 nM. For the molecule `CCOc1cccc(C2(N3CCN(c4ccccc4)CC3)CCC(CC)CC2)c1` (stereo not drawn) [Compound 20, 1-(3-Ethoxyphenyl)-1-(4-phenylpiperazin-1-yl)-4-ethyl-cyclohexane dihydrochloride], the IC50 was 76 nM. This IC50 lies about 1.8-fold lower than the previous one. The value for `COc1cccc(C2(N3CCN(c4ccccc4)CC3)CCC(C)CC2)c1` (stereo not drawn) [Compound 13, 1-(3-Methoxyphenyl)-1-(4-phenylpiperazin-1-yl)-4-methyl-cyclohexane dihydrochloride] was 67 nM; that for `COCOc1cccc(C2(N3CCN(c4ccccc4)CC3)CCC(C)CC2)c1` (stereo not drawn) [Compound 29, 1-(3-Methoxymethoxyphenyl)-1-(4-phenylpiperazin-1-yl)-4-methyl-cyclohexane dihydrochloride] was 39 nM; that for `CCOc1cccc(C2(N3CCN(c4ccccc4)CC3)CCC(C)CC2)c1` (stereo not drawn) [Compound 18, 1-(3-Ethoxyphenyl)-1-(4-phenylpiperazin-1-yl)-4-methyl-cyclohexane dihydrochloride] was 75 nM. Molecule `CCOc1cccc(C2(N3CCN(c4ccccc4)CC3)CCC(CC)CC2)c1` (stereo not drawn) [Compound 21, 1-(3-Ethoxyphenyl)-1-(4-phenylpiperazin-1-yl)-4-ethyl-cyclohexane dihydrochloride] had an IC50 of 525 nM.
